# US20250313533A1, “QUINOLINE CARBOXYLIC ACID ESTER COMPOUND AND PREPARATION METHOD AND USE THEREOF” (priority 2019, published 2025)
# Columns and labels:
# [1] = tested on: stem rot in sweet potatoes; test: whole plant or invertebrate; details: read-out: efficacy against stem rot in sweet potatoes
# [2] = tested on: pathogenic bacteria causing fire blight in pears; test: In vitro bactericidal activity, fire blight in pears; format: cell-based, erwinia; details: Erwinia, read-out: inhibitory rate; for inhibition at 1 ppm: dosage 1 ppm; for inhibition at 5 ppm: dosage 5 ppm
# cucumber seedlings = test: Safety for plant growth after application; format: in vivo; details: dosage 200 ppm
# Summary of the method: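 Safety to the crop is assessed on cucumber seedlings in indoor pots by tracking how treatment alters leaf area, chlorophyll level and height growth rate.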
# [3] = tested on: fruit blotch in watermelons; test: whole plant or invertebrate; details: read-out: efficacy against fruit blotch in watermelons
# [4] = tested on: pathogenic bacteria causing bacterial wilt in tobacco; test: whole plant or invertebrate; format: cell-based, ralstonia; details: read-out: inhibitory rate
# [5] = tested on: pathogenic bacteria causing black shank in potatoes; test: In vitro bactericidal activity, black shank in potatoes; format: cell-based; details: read-out: inhibitory rate; for inhibition at 1 ppm: dosage 1 ppm; for inhibition at 5 ppm: dosage 5 ppm
# [6] = tested on: pathogenic bacteria causing bacterial wilt in cassava; test: organism not typed; format: cell-based; details: read-out: inhibitory rate
# black shank in potatoes = test: Living crops in vivo protective activity, potatoes (root irrigation); details: Solanum tuberosum, read-out: efficacy against black shank in potatoes; for pest or weed control at 5 ppm: dosage 5 ppm; for pest or weed control at 10 ppm: dosage 10 ppm
# Method: Root irrigation was carried out on the potatoes for tests according to the designed concentration of the agents. The dosage for each plant was 200 mL and was kept consistent (also for the control). The black shank bacteria were inoculated on the second day after the application. The results were investigated according to the disease condition.
# [7] = tested on: soft rot in Chinese cabbages; test: whole plant or invertebrate; details: 48 h, read-out: efficacy against soft rot in Chinese cabbages
# [8] = tested on: pathogenic bacteria causing black rot in Chinese cabbages; test: In vitro bactericidal activity, black rot in Chinese cabbages; format: cell-based, xanthomonas; details: Xanthomonas, read-out: inhibitory rate; for inhibition at 1 ppm: dosage 1 ppm; for inhibition at 5 ppm: dosage 5 ppm
# [9] = tested on: pathogenic bacteria causing fruit blotch in watermelons; test: In vitro bactericidal activity, fruit blotch in watermelons; format: cell-based, acidovorax; details: read-out: inhibitory rate; for inhibition at 1 ppm: dosage 1 ppm; for inhibition at 5 ppm: dosage 5 ppm
# [10] = tested on: pathogenic bacteria causing bacterial blight in rice; test: whole plant or invertebrate; format: cell-based, xanthomonas; details: read-out: inhibitory rate
# bacterial blight in rice = test: whole plant or invertebrate; details: Oryza sativa, read-out: efficacy against bacterial blight in rice
# [11] = tested on: indoor potted cucumber seedlings; test: Effect of improving growth and development of crops; format: in vivo; parameters: Rate of growth rate increase (%): concentration or dose not given beside the values; details: versus blank control; for Rate of chlorophyll content increase (%) / Rate of leaf area increase (%): 14 days after application; for Rate of growth rate increase (%): plant height 14 days after application; for Rate of leaf area increase (%): second leaf
# Summary of the method: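 Growth effects were scored as percent increases in height growth rate, second-leaf area and chlorophyll (SPAD meter), comparing values taken before and 14 days after application.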
# [12] = tested on: pathogenic bacteria causing stem rot in sweet potatoes; test: In vitro bactericidal activity, stem rot in sweet potatoes; format: cell-based, dikia; details: read-out: inhibitory rate; for inhibition at 1 ppm: dosage 1 ppm; for inhibition at 5 ppm: dosage 5 ppm
# [13] = tested on: pathogenic bacteria causing bacterial angular leaf spot in cucumbers; test: In vitro bactericidal activity, bacterial angular leaf spot in cucumbers; format: cell-based, pseudomonas; details: read-out: inhibitory rate; for inhibition at 1 ppm: dosage 1 ppm; for inhibition at 5 ppm: dosage 5 ppm
# [14] = tested on: bacterial wilt in tobacco; test: whole plant or invertebrate; details: Nicotiana tabacum, read-out: efficacy against bacterial wilt in tobacco
Structure (SMILES),pest or weed control at 5 ppm [1] [%],pest or weed control at 10 ppm [1] [%],inhibition at 1 ppm [2] [%],inhibition at 5 ppm [2] [%],"safety for plant growth (discoloration, necrosis, wilt, malformation) (cucumber seedlings)",pest or weed control at 5 ppm [3] [%],pest or weed control at 10 ppm [3] [%],inhibition at 1 ppm [4] [%],inhibition at 5 ppm [4] [%],inhibition at 1 ppm [5] [%],inhibition at 5 ppm [5] [%],inhibition at 1 ppm [6] [%],inhibition at 5 ppm [6] [%],pest or weed control at 5 ppm (black shank in potatoes) [%],pest or weed control at 10 ppm (black shank in potatoes) [%],pest or weed control at 5 ppm [7] [%],pest or weed control at 10 ppm [7] [%],inhibition at 1 ppm [8] [%],inhibition at 5 ppm [8] [%],inhibition at 1 ppm [9] [%],also measured
COCCOC(=O)c1cn(C2CC2)c2cc(N(C)C)c(F)cc2c1=O [Compound 414],≥ 90,≥ 90,≥ 90,≥ 90,safe for plant growth,≥ 90,≥ 90,≥ 90,≥ 90,≥ 90,≥ 90,≥ 90,≥ 90,≥ 90,≥ 90,≥ 90,≥ 90,≥ 90,≥ 90,≥ 90,inhibition at 5 ppm [9]: ≥ 90%; inhibition at 1 ppm [10]: ≥ 90%; inhibition at 5 ppm [10]: ≥ 90%; pest or weed control at 5 ppm (bacterial blight in rice): ≥ 90%; pest or weed control at 10 ppm (bacterial blight in rice): ≥ 90%; Rate of chlorophyll content increase (%) [11]: 15%; Rate of growth rate increase (%) [11]: 12%; Rate of leaf area increase (%) [11]: 18%; inhibition at 1 ppm [12]: ≥ 90%; inhibition at 5 ppm [12]: ≥ 90%; inhibition at 1 ppm [13]: ≥ 90%; inhibition at 5 ppm [13]: ≥ 90%; pest or weed control at 5 ppm [14]: ≥ 90%; pest or weed control at 10 ppm [14]: ≥ 90%
CCN(CC)c1cc2c(cc1F)c(=O)c(C(=O)OCCO)cn2C1CC1 [Compound 419],≥ 90,≥ 90,≥ 90,≥ 90,safe for plant growth,≥ 90,≥ 90,≥ 90,≥ 90,≥ 90,≥ 90,≥ 90,≥ 90,≥ 90,≥ 90,≥ 90,≥ 90,≥ 90,≥ 90,≥ 90,inhibition at 5 ppm [9]: ≥ 90%; inhibition at 1 ppm [10]: ≥ 90%; inhibition at 5 ppm [10]: ≥ 90%; pest or weed control at 5 ppm (bacterial blight in rice): ≥ 90%; pest or weed control at 10 ppm (bacterial blight in rice): ≥ 90%; Rate of chlorophyll content increase (%) [11]: 15%; Rate of growth rate increase (%) [11]: 11%; Rate of leaf area increase (%) [11]: 17%; inhibition at 1 ppm [12]: ≥ 90%; inhibition at 5 ppm [12]: ≥ 90%; inhibition at 1 ppm [13]: ≥ 90%; inhibition at 5 ppm [13]: ≥ 90%; pest or weed control at 5 ppm [14]: ≥ 90%; pest or weed control at 10 ppm [14]: ≥ 90%
"CCN(CC)c1cc2c(cc1F)c(=O)c(C(=O)OCCOC)cn2C1CC1 [Compound 420, 2-methoxyethyl 1-cyclopropyl-7-(diethylamino)-6-fluoro-4-oxo-1,4-dihydroquinoline-3-carboxylate]",≥ 90,≥ 90,≥ 90,≥ 90,safe for plant growth,≥ 90,≥ 90,≥ 90,≥ 90,≥ 90,≥ 90,≥ 90,≥ 90,≥ 90,≥ 90,≥ 90,≥ 90,≥ 90,≥ 90,≥ 90,inhibition at 5 ppm [9]: ≥ 90%; inhibition at 1 ppm [10]: ≥ 90%; inhibition at 5 ppm [10]: ≥ 90%; pest or weed control at 5 ppm (bacterial blight in rice): ≥ 90%; pest or weed control at 10 ppm (bacterial blight in rice): ≥ 90%; Rate of chlorophyll content increase (%) [11]: 9%; Rate of growth rate increase (%) [11]: 9%; Rate of leaf area increase (%) [11]: 12%; inhibition at 1 ppm [12]: ≥ 90%; inhibition at 5 ppm [12]: ≥ 90%; inhibition at 1 ppm [13]: ≥ 90%; inhibition at 5 ppm [13]: ≥ 90%; pest or weed control at 5 ppm [14]: ≥ 90%; pest or weed control at 10 ppm [14]: ≥ 90%
